This passage reports Ki results from patent US10822338B2, “Substituted aminoquinazoline compounds as A2A antagonist” (Merck Sharp & Dohme Corp., priority 2015, dated 2020).

Molecules are shown by their SMILES.

Chain of human A2A receptor (P29274 whole entry): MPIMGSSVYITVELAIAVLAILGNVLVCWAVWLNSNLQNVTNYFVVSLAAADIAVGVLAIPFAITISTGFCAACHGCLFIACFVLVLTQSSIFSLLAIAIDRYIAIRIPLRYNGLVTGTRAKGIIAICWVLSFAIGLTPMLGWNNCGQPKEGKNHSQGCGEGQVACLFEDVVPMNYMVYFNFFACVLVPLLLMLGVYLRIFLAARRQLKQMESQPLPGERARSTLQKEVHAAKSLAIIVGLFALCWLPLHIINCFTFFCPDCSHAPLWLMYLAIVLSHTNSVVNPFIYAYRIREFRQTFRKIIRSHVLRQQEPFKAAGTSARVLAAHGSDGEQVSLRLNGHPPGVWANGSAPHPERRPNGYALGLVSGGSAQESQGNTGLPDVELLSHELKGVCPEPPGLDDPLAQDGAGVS

One experiment has as its target human A2A receptor (Homo sapiens (Human), UniProt P29274). Nature of the experiment: A2A competition binding assay using Scintillation Proximity technology. Conditions: 0.25 μg of membranes from HEK293 cells expressing the human A2a receptor per well; 0.5 nM tritiated radioligand; Cheng-Prusoff. How it is done: Binding affinities of compounds of the invention for the human A2A receptor were determined in a competition binding assay using Scintillation Proximity technology. Thus, 1^μg (^ denotes 1 μg of membrane/well), or preferably 0.25 μg of membranes from HEK293 cells expressing the human A2a receptor were incubated with a compound of the invention at concentrations ranging from 3000 nM to 0.15 nM in a reaction mixture containing also 0.5 nM of a tritiated form of 5-amino-7-[2-phenethyl]-2-(furan-2-yl)-7H-pyrazolo[4,3-e][1,2,4]triazolo[1,5-c]pyrimidine (the tritiated compound) and 25 μg of wheat germ agglutin-coated yttrium silicate SPA beads for one hour at room temperature with agitation. The beads were then allowed to settle to the bottom of the wells for 1 hr, after which the membrane-associated radioactivity was determined by scintillation counting in a TopCount microplate reader. Ki values were determined using the Cheng-Prusoff equation.
HEK293 cells expressing the human, rat, dog or monkey adenosine 2a receptor (Purchased from Perkin-Elmer # RBHA2AM400UA).
The Tritiated compound was prepared in-house by MRL Radiochemistry according to published methods.
Wheat germ agglutinin-coated yttrium silicate SPA beads (GE Healthcare #RPNQ0023). Dilute to 25 mg/mL in assay buffer.
Assay Buffer was prepared in house: Dulbecco's calcium and magnesium free phosphate buffered saline+10 mM MgCl2
Adenosine deaminase from calf intestine, 10 mg/2 mL (Roche #10 102 105 001).
A2A antagonist standard (9-chloro-1-(2-furanyl)-[1,2,4]triazolo[1,5-c]quinazolin-5-amine from Tocris Bioscience)
Make eight 1:3 serial dilutions in 100% DMSO from a 3 mM compound stock
Transfer 50 nL of compound into a 384-well OptiPlate (Perkin Elmer).
Typically, final concentrations of compound used in the assay ranged from 3000 nM to 0.152 nM.
Dilute a solution of the Tritiated compound to 1.25 nM in assay buffer. This a 2.5× solution. The final concentration in the assay is 0.5 nM. Calculate the concentration by counting two 5 μL aliquots.
Use *1 ug or preferrably 0.25 ug of membrane/well. Dilute membranes to 9.7 μg/ml in assay buffer. Treat with 20 ug/ml adenosine deaminase (ADA) for 15 minutes at room temperature to degrade endogenous adenosine.
Use 25 μg/well wheat germ agglutinin-coated yttrium silicate SPA beads.
Mix ADA-treated membranes and SPA beads together for 30 min prior to assay.
To the Perkin-Elmer Optiplate-384 containing the compound titration add 20 μL of 2.5× solution of the Tritiated compound and 30 μL of the membrane-bead mixture. Incubate for one hour at room temperature with agitation.
Include total binding (assay buffer+1% DMSO) and non-specific binding (CGS15943, 1 μM) wells.
Allow the beads to settle for one hour.
A curve fitting program (i.e., Prism, Activity Base, Chemcart) is used to determine the EC50. The Ki value is calculated using the Cheng-Prusoff equation. Ki=EC50/(1+(radioligand concentration/Kd)) Counting and Calculations
Counting and calculations were performed as described within the “A2A Activity Binding of Compounds of the Invention” section. Using the foregoing methods, the following results were obtained using compounds of the invention described herein. Each example compound tested is reported in the following format: Example number: A2A Ki (nM) selectivity.
As to `COc1cccc2c1nc(N)n1nc(C3CNCC(F)(F)C3)nc21` (single isomer, unassigned) [Example 33A, 2-(5,5-difluoropiperidin-3-1-yl)-7-methoxy-[1,2,4]triazolo[1,5-c]quinazolin-5-amine], affinity was put at a Ki of 5.3 nM.

For `COc1cccc2c1nc(N)n1nc([C@@H]3CCCN(CC4CCCC4)C3)nc21` [Example 47, 2-((3R)-1-(cyclopentylmethyl)piperidin-3-yl)-7-methoxy[1,2,4]triazolo [1,5-c]quinazolin-5-amine], the affinity corresponds to a Ki of 9.7 nM.

With `COc1cccc2c1nc(N)n1nc(C3CCCCN(CC(F)(F)F)C3)nc21` (single isomer, unassigned) [Example 32B, 7-methoxy-2-(1-(2,22-trifluoroethyl)azepan-3-yl)-[1,2,4]triazolo[1,5-c]quinazolin-5-amine], affinity was put at a Ki of 5.9 nM. Compared with the last compound, the Ki is about 1.6-fold lower.

For the compound `COc1cccc2c1nc(N)n1nc([C@@H]3CCN(CC(F)(F)F)C3)nc21` [Example 53, (R)-7-methoxy-2-(1-(2,2,2-trifluoroethyl)pyrrolidin-3-yl)-[1,2,4]triazolo[1,5-c]quinazolin-5-amine], the affinity corresponds to a Ki of 2 nM.

Regarding `COc1cccc2c1nc(N)n1nc(C3CC(F)(F)CCO3)nc21` (single isomer, unassigned) [Example 55B, 2-(4,4-difluorotetrahydro-2H-pyran-2-yl)-7-methoxy-[1,2,4]triazolo[1,5-c]quinazolin-5-amine], the Ki – broadly, the equilibrium dissociation constant of an inhibitor or competing ligand from its target – stood at 2 nM.

On to `COc1cccc2c1nc(N)n1nc([C@@H]3CCCN(CC(C(F)(F)F)C(F)(F)F)C3)nc21` [Example 2, (R)-7-methoxy-2-(1-(3,3,3-trifluoro-2-(trifluoromethyl)propyl)piperidin-3-yl)-[1,2,4]triazolo[1,5-c]quinazolin-5-amine], for which the Ki amounted to 0.3 nM.

Compound `COc1cccc2c1nc(N)n1nc([C@@H]3CCCN(CC4CCOCC4)C3)nc21` [Example 44, (R)-7-methoxy-2-(1-((tetrahydro-2H-pyran-4-yl)methyl)piperidin-3-yl)-[1,2,4]triazolo[1,5-c]quinazolin-5-amine] returned a Ki of 5 nM.

As for `COc1cccc2c1nc(N)n1nc(C3CC4CCC3N(CC(F)(F)F)C4)nc21` (single isomer, unassigned) [Example 35B, 7-methoxy-2-(2-(2,2,2-trifluoroethyl)-2-azabicyclo[2.2.2]octan-6-yl)-[1,2,4]triazolo[1,5-c]quinazolin-5-amine], the Ki amounted to 54 nM.

For the compound `COc1cccc2c1nc(N)n1nc([C@@H]3CCCNC3)nc21` [Example 13, (R)-7-methoxy-2-(piperidin-3-yl)-[1,2,4]triazolo[1,5-c]quinazolin-5-amine], the affinity corresponds to a Ki of 93 nM.

With `COc1cccc2c1nc(N)n1nc(C3CNCC(F)(F)C3)nc21` (single isomer, unassigned) [Example 33B, 2-(5,5-difluoropiperidin-3-1-yl)-7-methoxy-[1,2,4]triazolo[1,5-c]quinazolin-5-amine], the Ki stood at 2.4 nM.

The compound `COc1cccc2c1nc(N)n1nc([C@@H]3CCCN(CC(C)(C)F)C3)nc21` [Example 43, (R)-2-(1-(2-fluoro-2-methylpropyl)piperidin-3-yl)-7-methoxy-[1,2,4]triazolo[1,5-c]triazolo[1,5-c]quinazolin-5-amine] had a Ki of 0.6 nM.

For the compound `COc1cccc2c1nc(N)n1nc([C@@H]3CCCN(CC(F)F)C3)nc21` [Example 3, (R)-2-(1-(2,2-difluoroethyl)piperidin-3-yl)-7-methoxy-[1,2,4]triazolo[1,5-c]quinazolin-5-amine], the affinity corresponds to a Ki of 0.4 nM.

In turn, `COc1cccc2c1nc(N)n1nc(C3CCC(F)(F)CN3)nc21` (single isomer, unassigned) [Example 58B, 2-(5,5-difluoropiperidin-2-yl)-7-methoxy-[1,2,4]triazolo[1,5-c]quinazolin-5-amine] had a Ki of 0.3 nM.

Turning to `COc1cccc2c1nc(N)n1nc([C@@H]3CC(F)(F)CN3)nc21` [Example 57, (S)-2-(4,4-difluoropyrrolidin-2-yl)-7-methoxy-[1,2,4]triazolo[1,5-c]quinazolin-5-amine], affinity was put at a Ki of 0.5 nM.

In turn, `COc1cccc2c1nc(N)n1nc(C3CCCCN(CC(F)(F)F)C3)nc21` (single isomer, unassigned) [Example 32A, 7-methoxy-2-(1-(2,22-trifluoroethyl)azepan-3-yl)-[1,2,4]triazolo[1,5-c]quinazolin-5-amine] yielded a Ki of 0.7 nM.

Turning to `COc1cccc2c1nc(N)n1nc([C@@H]3CCCN(C4CCC(F)(F)CC4)C3)nc21` [Example 49, 2-((3R)-1-(4,4-difluorocyclohexyl)piperidin-3-yl)-7-methoxy[1,2,4]triazolo [1,5-c]quinazolin-5-amine], the affinity corresponds to a Ki of 5.9 nM.

`COc1cccc2c1nc(N)n1nc(C3CCCC(CCC(F)(F)F)C3)nc21` (single isomer, unassigned) [Example 29C, 7-methoxy-2-(3-(3,3,3-trifluoropropyl)cyclohexyl)-[1,2,4]triazolo[1,5-c]quinazolin-5-amine] returned a Ki of 0.4 nM.

The compound `COc1cccc2c1nc(N)n1nc([C@@H]3CCCN(CC4(C)COC4)C3)nc21` [Example 18, (R)-7-methoxy-2-(1-((3-methyloxetan-3-yl)methyl)piperidin-3-yl)-[1,2,4]triazolo[1,5-d]quinazolin-5-amine] had a Ki of 3 nM.

The same experiment, now with this note: values marked ^: 1 μg of membrane/well (HEK293 cells expressing the human A2a receptor); 0.5 nM tritiated radioligand; Cheng-Prusoff.
The compound `COc1cccc2c1nc(N)n1nc([C@@H]3CCCN(C(=O)C(C)(C)C)C3)nc21` [Example 38, 2-((3R)-1-(2,2-dimethylpropanoyl)piperidin-3-yl)-7-methoxy[1,2,4]triazolo [1,5-c]quinazolin-5-amine] displayed a Ki of 4.4 nM.

In turn, `Nc1nc2c3c(ccc2c2nc(C4CCCN(CCC(F)(F)F)C4)nn12)OC(F)(F)O3` (single isomer, unassigned) [Example 56A] had a Ki of 0.8 nM. This Ki lies about 5.5-fold lower than the previous one.

On to `COc1cccc2c1nc(N)n1nc(C3CCCN(c4ccccc4)C3)nc21` (single isomer, unassigned) [Example 50A, 7-methoxy-2-(1-phenylpiperidin-3-yl)-[1,2,4]triazolo[1,5-c]quinazolin-5-amine], for which the Ki was 0.9 nM. This Ki and that of the compound before are within 1.5-fold of each other.

Take `COc1cccc2c1nc(N)n1nc([C@@H]3CCCN(c4ncns4)C3)nc21` [Example 21, (R)-2-(1-(1,2,4-thiadiazol-5-yl)piperidin-3-yl)-7-methoxy-[1,2,4]triazolo[1,5-c]quinazolin-5-amine]: the Ki is 3.2 nM.

Compound `C#CC(C)(C)N1CCC[C@@H](c2nc3c4cccc(OC)c4nc(N)n3n2)C1` [Example 9, (R)-7-methoxy-2-(1-(2-methylbut-3-yn-2-yl)piperidin-3-yl)-[1,2,4]triazolo[1,5-c]quinazolin-5-amine] registered a Ki of 20 nM.

For the compound `COc1cccc2c1nc(N)n1nc([C@@H]3CCCN(CC(C)C)C3)nc21` [Example 8, (R)-2-(1-isobutylpiperidin-3-yl)-7-methoxy-[1,2,4]triazolo[1,5-c]quinazolin-5-amine], the Ki turned out to be 45 nM.

Regarding `COc1cccc2c1nc(N)n1nc([C@@H]3CCCN(C(=O)c4ocnc4C)C3)nc21` [Example 40, 7-methoxy-2-((3R)-1-((4-methyl-1,3-oxazol-5-yl)carbonyl)piperidin-3-yl)[1,2,4]triazolo[1,5-c]quinazolin-5-amine], affinity was put at a Ki of 1.5 nM.

In the case of `COc1cccc2c1nc(N)n1nc([C@@H]3CCCN(S(=O)(=O)c4ccccc4)C3)nc21` [Example 36, (R)-7-methoxy-2-(1-(phenylsulfonyl)piperidin-3-yl)-[1,2,4]triazolo[1,5-c]quinazolin-5-amine], affinity was put at a Ki of 1.2 nM.

In turn, `COc1cccc2c1nc(N)n1nc([C@@H]3CCCN(Cc4cccnc4)C3)nc21` [Example 45, 7-methoxy-2-((3R)-1-(pyridin-3-ylmethyl)piperidin-3-yl)[1,2,4]triazolo[1,5-c]quinazolin-5-amine] displayed a Ki of 3.8 nM.
